{
  "source": "patent US20140242180A1",
  "about": "“NANOPARTICLES FOR CONTROLLING BLEEDING AND DRUG DELIVERY” (CASE WESTERN RESERVE UNIVERSITY, priority 2011, published 2014)",
  "system": "activated platelets",
  "test": "in vitro screening of activated labeled platelets binding to polymer-modified surfaces",
  "assay_type": "cell-based",
  "details": "preliminary work; PEG 4600",
  "text": "An in vitro system was developed for high throughput screening of the coagulation efficiency of the synthetic platelets with the platelets labeled using CellTracker green following to facilitate ease of analysis. Essentially, this assay involves activating platelets which have been previously labeled with CellTracker and looking at the number that bind to surfaces modified with a polymer systems under agitation. This assay was validated with collagen. This system allowed one to efficiently and independently vary the PEG molecular weight and RGD motif (i.e. RGD, RGDS, and GRGDS).",
  "note": "“Also recorded” adds a separate entry of the source.",
  "data": [
    {"substance": "GRGDS [GRGDS peptide]", "values": [
      {"measurement": "adhesion and aggregation of activated platelets", "result": "efficient adhesion and aggregation; also recorded: good binding and adhesion"}
    ]}
  ]
}
